Laboratory results taken from patent publication US20090155209A1, “NOVEL MACROCYCLIC INHIBITORS OF HEPATITIS C VIRUS REPLICATION” (priority 2007, published 2009).
Values joined by “and” are separate entries in the source; they are usually repeats but may differ in a detail not shown here. Identical values can stand only once. Like-named read-outs stand apart in the source and are kept apart here.

Assay: Single ascending dose study, fasted and fed: safety and non-compartmental plasma PK
Format: in vivo, healthy volunteers (human)
Details: for median percentage change in AUC0-inf between the fasted and fed conditions: 10 subjects
Description: A single ascending dose (SAD) study of the compound 100 was conducted in healthy volunteers. The compound 100 was administered as monotherapy both with and without food. The safety and pharmacokinetic profile of the single dose of the compound 100 was assessed.
Interim, blinded data were used for Pharmacokinetic (PK) study relating to food effects. With the exception of the 400 mg cohort, eight subjects were studied at each dose (single doses of 100, 200, or 800 mg of the sodium salt of the compound 100, which may be referred to herein as ITMN-191, administered in the fasting state). In the 400 mg cohort, ten subjects received single 400 mg doses of ITMN-191 under both fasted and fed conditions with a 5-day washout period between dosing. In the 100 mg cohort, subjects were sampled within 1 hour before dosing and at 0.5, 1, 1.5, 2, 2.5, 3, 4, 6, 8, 12, 18, 24, 32 and 48 hours after dosing. For subsequent cohorts, subjects were sampled within 1 hour before dosing and at 0.25, 0.5, 1, 1.5, 2, 2.5, 3, 4, 6, 8, 12, 18, 24, and 32 hours after dosing. Nominal (not actual) sampling times were used for the analysis. PK samples were analyzed using liquid chromatography-tandem mass spectrometry (LC/MS/MS with API 4000 mass spectrometer) following solid-phase extraction. The upper and lower limits of quantitation (ULOQ and LLOQ) are 100 and 0.01 ng/mL, respectively.
Pharmacokinetic parameter estimates were calculated using non-compartmental methods (implemented using Microsoft Excel®). Half-lives were determined by visual inspection of the log concentration-time plots to choose the terminal phase (minimum of three detectable observations). Using linear regression of the chosen terminal phase observations, elimination rate constants were calculated as the negative slope of the regression line and half-life as the natural log of 2 divided by the elimination rate constant.
Ten subjects received single 1600 mg doses of ITMN-191 under both fasted and fed conditions with a 5-day washout period between dosing. For each condition, subjects were sampled within 1 hour before dosing and at 0.25, 0.5, 1, 1.5, 2, 2.5, 3, 4, 6, 8, 12, 18, 24, and 32 hours after dosing. Pharmacokinetic parameter estimates were calculated using non-compartmental methods. Half-life (t1/2) was determined by visual inspection of the log concentration-time plots to choose the terminal phase (minimum of three detectable observations). Using linear regression of the chosen terminal phase observations, elimination rate constants were calculated as the negative slope and half-life as the natural log of 2 divided by the elimination rate constant.

[1] = individual subjects, single 1600 mg dose, Fasted
[2] = individual subjects, single 1600 mg dose, Fed

`CC(C)(C)OC(=O)N[C@H]1CCCCC/C=C\[C@@H]2C[C@@]2(C(=O)NS(=O)(=O)C2CC2)NC(=O)[C@@H]2C[C@@H](OC(=O)N3Cc4cccc(F)c4C3)CN2C1=O` [ITMN-191] showed an AUC0-inf (human, plasma, oral, 1600 mg, Geometric Mean of 10 subjects, single 1600 mg dose, Fed, read-out: AUC0-inf) of 1010 ng·h/mL, a Cmax (human, plasma, oral, 1600 mg, Geometric Mean of 10 subjects, single 1600 mg dose, Fed, read-out: Cmax) of 422 ng/mL and a half-life (human, plasma, oral, 1600 mg, Geometric Mean of 10 subjects, single 1600 mg dose, Fed, read-out: t½ (converted)) of 2.5 h. The AUC0-inf (human, plasma, oral, 1600 mg, Harmonic Mean of 10 subjects, single 1600 mg dose, Fasted, read-out: AUC0-inf) was 639 ng·h/mL, the Cmax (human, plasma, oral, 1600 mg, Harmonic Mean of 10 subjects, single 1600 mg dose, Fasted, read-out: Cmax) was 453 ng/mL and the half-life (human, plasma, oral, 1600 mg, Harmonic Mean of 10 subjects, single 1600 mg dose, Fasted, read-out: t½ (converted)) was 2.29 h. For the same compound, the AUC0-inf (human, plasma, oral, 1600 mg, Harmonic Mean of 10 subjects, single 1600 mg dose, Fed, read-out: AUC0-inf) was 949 ng·h/mL, the Cmax (human, plasma, oral, 1600 mg, Harmonic Mean of 10 subjects, single 1600 mg dose, Fed, read-out: Cmax) was 326 ng/mL and the half-life (human, plasma, oral, 1600 mg, Harmonic Mean of 10 subjects, single 1600 mg dose, Fed, read-out: t½ (converted)) was 2.43 h. For the same compound, the AUC0-inf (human, plasma, oral, 1600 mg, Mean of 10 subjects, single 1600 mg dose, Fasted, read-out: AUC0-inf) was 691 ng·h/mL, the Cmax (human, plasma, oral, 1600 mg, Mean of 10 subjects, single 1600 mg dose, Fasted, read-out: Cmax) was 622 ng/mL and the half-life (human, plasma, oral, 1600 mg, Mean of 10 subjects, single 1600 mg dose, Fasted, read-out: t½ (converted)) was 2.48 h. It also gave an AUC0-inf (human, plasma, oral, 1600 mg, Mean of 10 subjects, single 1600 mg dose, Fed, read-out: AUC0-inf) of 1070 ng·h/mL, a Cmax (human, plasma, oral, 1600 mg, Mean of 10 subjects, single 1600 mg dose, Fed, read-out: Cmax) of 528 ng/mL and a half-life (human, plasma, oral, 1600 mg, Mean of 10 subjects, single 1600 mg dose, Fed, read-out: t½ (converted)) of 2.56 h. For the same compound, the AUC0-inf (human, plasma, oral, 1600 mg, Median of 10 subjects, single 1600 mg dose, Fasted, read-out: AUC0-inf) was 737 ng·h/mL, the Cmax (human, plasma, oral, 1600 mg, Median of 10 subjects, single 1600 mg dose, Fasted, read-out: Cmax) was 685 ng/mL and the Tmax (human, plasma, oral, 1600 mg, Median of 10 subjects, single 1600 mg dose, Fasted, read-out: Tmax) was 0.5 h. It also gave a half-life (human, plasma, oral, 1600 mg, Median of 10 subjects, single 1600 mg dose, Fasted, read-out: t½ (converted)) of 2.21 h, an AUC0-inf (human, plasma, oral, 1600 mg, Median of 10 subjects, single 1600 mg dose, Fed, read-out: AUC0-inf) of 1120 ng·h/mL and a Cmax (human, plasma, oral, 1600 mg, Median of 10 subjects, single 1600 mg dose, Fed, read-out: Cmax) of 449 ng/mL. For the same compound, the Tmax (human, plasma, oral, 1600 mg, Median of 10 subjects, single 1600 mg dose, Fed, read-out: Tmax) was 1.75 h, the half-life (human, plasma, oral, 1600 mg, Median of 10 subjects, single 1600 mg dose, Fed, read-out: t½ (converted)) was 2.64 h and the half-life (human, plasma, oral, 1600 mg, individual subjects, single 1600 mg dose, Fed, read-out: t½ (converted)) was 3 h. The half-life (human, plasma, oral, in most subjects, read-out: terminal half-life) was 1 to 2 h, the AUC0-inf [1] was 890 ng·h/mL and 360 ng·h/mL and 529 ng·h/mL and 507 ng·h/mL and 907 ng·h/mL and 809 ng·h/mL and 753 ng·h/mL and 652 ng·h/mL and 720 ng·h/mL and 779 ng·h/mL and the Cmax [1] was 892 ng/mL and 225 ng/mL and 548 ng/mL and 214 ng/mL and 1000 ng/mL and 860 ng/mL and 305 ng/mL and 909 ng/mL and 822 ng/mL and 442 ng/mL. For the same compound, the AUC0-inf [2] was 1895 ng·h/mL and 583 ng·h/mL and 939 ng·h/mL and 1116 ng·h/mL and 1225 ng·h/mL and 1209 ng·h/mL and 806 ng·h/mL and 1133 ng·h/mL and 1174 ng·h/mL, the Cmax [2] was 1510 ng/mL and 381 ng/mL and 199 ng/mL and 100 ng/mL and 444 ng/mL and 592 ng/mL and 454 ng/mL and 346 ng/mL and 760 ng/mL and 493 ng/mL and the Tmax [2] was 1.5 h and 4 h and 2 h. For the same compound, the t½ [2] was 2.01 h and 2.65 h and 1.80 h and 3.35 h and 2.16 h and 2.63 h and 1.82 h and 2.70 h and 3.48 h, the “subjects with an increase in AUC0-inf under fed conditions” value (single 400 mg dose) was 8 of 10 and the “median percentage change in AUC0-inf between the fasted and fed conditions” value (single 400 mg dose) was 26%. The “subjects with an increase in AUC0-inf under fed conditions” value (single 1600 mg dose) was 10 of 10 and the “median percentage change in AUC0-inf between the fasted and fed conditions” value (single 1600 mg dose) was 54%.
